One data set relates to MP38 cells. Put plainly: Cell viability (XTT) on uveal melanoma cells MP38. The format is cell-based. On the procedure:
(§1) FIG. 1: In vitro efficacy of MCK140 and MCK151 on uveal melanoma cells. Cells were treated for 48 hours with increasing doses of MCK140 or MCK151 and the cell viability was then evaluated by XTT.
(§2) Cell culture: Uveal melanoma cells were derived from the primary tumor (eye tumor, MP38 and MP46) and one is from liver metastasis (MM66) were a kind gift from Dr. Roman Roman (Curie Institute). UM cells were cultured in RPMI medium supplemented with 20% FBS.
(§3) Cell viability (XTT): Cells (5×10^3 cells/100 μl) were incubated in a 96-well plate with different effectors for the times indicated in the figure legends. 50 μl of sodium 3′-[1-phenylaminocarbonyl)-3,4-tetrazolium]-bis(4-methoxy-6-nitro) benzene sulfonic acid hydrate (XTT) reagent was added to each well. The assay is based on the cleavage of the yellow tetrazolium salt XTT to form an orange formazan dye by metabolically active cells. Absorbance of the formazan product, reflecting cell viability, was measured at 490 nm. Each assay was performed in quadruplicate.
For orientation: Tetrazolium assays rely on reduction of a dye to a coloured formazan, in cell work by metabolically active cells.

The test system of data set [1] is MP41 cells. Put plainly: Cell viability (XTT) on uveal melanoma cells MP41. The format is cell-based. The settings on record: for IC50: MP41 cells (primary tumor). As to the method:
as §1
(§4) FIG. 2A: In vitro efficacy of MCK151, Ladarixin, and AZD-5069 in uveal melanoma cells. MP41 and MM66 cells were treated for 48 hours with increasing doses of MCK151 or Ladarixin or AZD-5069 and the cell metabolism was then evaluated by XTT.
as §2, §3

Data set [2] deals with MM66 cells. As to the kind of experiment: Cell viability (XTT) on uveal melanoma cells MM66. It counts as cell-based. As to the method:
as §1, §4, §2, §3

In data set [3] the test system is MP41 cells. Put plainly: ROS assay (CellROX Deep Red, cytometry). The format is cell-based. Particulars: MCK151 1, 2.5, 5 μM, Ladarixin 10 μM, FIG. 2B. On the procedure:
FIG. 2B: Inhibition of ROS production by MCK151 and Ladarixin in uveal melanoma cells. MP41 cells were treated for 48 hours with increasing doses of MCK151 (1 μM, 2.5 μM, and 5 μM) or Ladarixin (10 μM) and ROS quantity was evaluated by cytometry.
ROS assay: Deep Red Reagent was used to assess the level of intracellular ROS. The CellROX/Deep Red reagent (which is initially non-fluorescent) freely enters the cells, where it is cleaved by endogenous esterases. After oxidization by ROS, the reagent becomes highly fluorescent with an absorption/emission maximal of 644/665 nm. Cells were treated 24h and incubated at 37° C. with CellROX Deep Red reagent (0.01 umol/L) for 2 h. The cells were then washed with PBS and analyzed by cytometry.

Data set [4] deals with MM66 cells. Put plainly: Migration assay (Boyden chamber). It counts as cell-based. As to the method: FIG. 3A: Evaluation of the migration ability of uveal cells treated with MCK151. MP41 and MM66 cells migration was analysed using Boyden chamber assays in the presence/absence of MCK151 (0.1 to 2.5 μM). Representative images were shown. ** p<0.01, *** p<0.001
Migration assays: 50 000 cells were cultured in RPMI 0% FCS and seeded in Boyden chambers. After 24 h, Boyden chambers were washed with PBS. Migrative cells were fixed with paraformaldehyde 3% and colored with crystal violet.

Another data set concerns MMP9 mRNA. As to the kind of experiment: MMP9 mRNA levels by RT-qPCR. The format is cell-based. Particulars: MP41 and MM66 cells, 24 hours, 2.5 μM, FIG. 3B. As to the method:
FIG. 3B: MMP9 mRNA levels (AU) in uveal melanoma cells. MP41 and MM66 cells were treated for 24 hours with MCK151 (2.5 μM) and MMP9 mRNA levels were evaluated by qPCR. *** p<0.001.
Analyses by RT-qPCR: RNA from cells were purified with the RNeasy Mini Kit (Quiagen). The “QuantiTect Reverse Transcription Kit” (Qiagen) was used for cDNA obtention. The PCR program was executed on “Professional Basic Thermocycler” (Biometra). SYBR master mix plus (Eurogentec) was used for qPCR. The mRNA levels were normalized to 36B4 mRNA.
For orientation: In qPCR the cycle at which signal appears reflects the starting amount.

For a further data set, the system named is SLUG. Put plainly: SLUG protein amount by immunoblotting. The format is cell-based. The settings on record: MP41 and MM66 cells, 2.5 μM, 0-24 h, FIG. 3C. On the procedure: FIG. 3C: Slug proteins amount in uveal melanoma cells treated by MCK151. MP41 and MM66 cells were treated with MCK151 (2.5 μM) for different time (0, 2, 4, 6, 8, and 24 h). SLUG protein amounts were evaluated by immunoblotting. HSP90 is used as a loading control.
Immunoblotting: Cells were lysed in SDS 7.5%; glycerol 30%; Tris 0.3 M pH 6.8 lysis buffer. 30 μg of proteins were separated on 10% SDS—polyacrylamide gels and transferred on PVDF membranes. The following primary antibodies were used: SLUG (Cell signaling, ref:9585) and HSP90 (Cell signaling, ref:4877).
Background: A western blot detects proteins with antibodies after separation by electrophoresis.

Data set [5] concerns MP41 cells. As to the kind of experiment: Tumor xenograft, intraperitoneal injection. The format is in vivo, mice. As to the method: FIG. 4: In vivo efficacy of MCK151 on mice treated by intraperitoneal injection. Five million MP41 cells were injected subcutaneously into the flank of 5-week-old NOD-SCID female mice. When the tumor reached 100 mm^3, mice were treated every day for 20 days, by intraperitoneal injection with placebo (dextrose water vehicle) or MCK151 (200 or 400 μg in dextrose water vehicle) • A: The tumor volume was evaluated using a calliper. The results are presented as the means±sd. ** p<0.01 • B: Tumor weight at the end of the experiment. ** p<0.01, *** p<0.001 • C: Animal weight at the end of the experiment. ns: non significant
(§5) Tumor xenograft experiments: These studies were carried out in strict accordance with the recommendations in the Guide for the Care and Use of Laboratory Animals. Our experiments were approved by the “Comité National Institutionnel d'Ethique pour l'Animal de Laboratoire”. Five million MP41 cells were injected subcutaneously into the flank of 5-week-old Nod-SDIC female mice (Janvier). When the tumor reached 100 mm3, mice were treated. The tumor volume was determined with a caliper (v=L*l2*0.5).

Data set [6] deals with MP41 cells. As to the kind of experiment: Tumor xenograft, gavage. The format is in vivo, mice. Particulars: orally. On the procedure: FIG. 5: In vivo efficacy of MCK151 on mice treated by gavage. Five million MP41 cells were injected subcutaneously into the flank of 5-week-old NOD-SCID female mice. When the tumor reached 100 mm^3, mice were treated every day for 27 days, by gavage with placebo (10% ethanol vehicle) or MCK151 (33 or 100 mg/kg in 10% ethanol vehicle). • A: The tumor volume was evaluated using a calliper. The results are presented as the means±sd. ** p<0.01, *** p<0.001 • B: Tumor weight at the end of the experiment. ** p<0.01, *** p<0.001 ns: non significant • C: Animal weight at the end of the experiment. ns: non significant
as §5
An oral formulation (10% ethanol in ultrapure water) was developed and tested in the same in vivo model (FIG. 5). […] However, a 100 mg/kg dose reduced tumor growth (50% reduction, FIG. 5A).

Where two headings read alike, the source gives them in different places.

What is called IC50 is the concentration needed to halve the response being measured. `O=C(Nc1cc(Cl)cc(Cl)c1)Nc1nc2ccc([N+](=O)[O-])cc2s1` [MCK151, 1-(3,5-dichlorophenyl)-3-(6-nitrobenzo[d]thiazol-2-yl)urea]: the IC50 with MP38 cells (MP38 cells (primary tumor), 48 hours, XTT) turned out to be 1 µM; in the data set with MP41 cells [1] (48 h, Table 3, read-out: IC50 (μM) at 48 h MP41), 1.25 µM; in the data set on MP41 cells [1] (48 hours, XTT, Table 2, read-out: IC50 (μM) UM MP41), 1.25 µM; in the data set with MM66 cells [2] (MM66 cells (liver metastases), 48 h, Table 3, read-out: IC50 (μM) at 48 h MM66), 1.5 µM; in the data set on MM66 cells [2] (MM66 cells (liver metastasis), 48 hours, XTT, Table 2, read-out: IC50 (μM) UM MM66), 1.5 µM. Also, the viability of cells entry was “decreased the viability” in the data set with MP38 cells (MP38 cells from the primary tumor, in words); “decreased the viability” in the data set with MP41 cells [1] (MP41 cells from the primary tumor, in words); “decreased the viability” in the data set with MM66 cells [2] (MM66 cells from liver metastases, in words). Moreover, the “metabolism of UM cells (XTT)” value was “strongly inhibits the metabolism of UM cells” in the data set with MP41 cells [1] (MP41 cells, 48 hours, increasing doses, FIG. 2A) and “strongly inhibits the metabolism of UM cells” with MM66 cells [2] (MM66 cells, 48 hours, increasing doses, FIG. 2A). Also, the “ROS production by UM cells” value in the data set on MP41 cells [3] is “inhibits ROS production”. For the same molecule, the “concentration of optimal effect on migration” value in the data set on MM66 cells [4] (Boyden chamber) stood at 0.5 µM. In addition, the migration ability result in the data set on MM66 cells [4] (MCK151 0.1 to 2.5 μM, FIG. 3A) is on record as “inhibits this migration ability”. Also, the “MMP9 mRNA levels” value with MMP9 mRNA is “decreases MMP9 mRNA levels”. Further, the “expression of SLUG” value in the data set on SLUG is on record as “decreases”. Also, the “inhibition of tumor growth” value with MP41 cells [5] (NOD-SCID mice, 400 μg dose, FIG. 4A) was 73%. The “growth of experimental tumors” value in the data set on MP41 cells [5] (NOD-SCID mice, 200 or 400 μg every day for 20 days, FIG. 4A) was “inhibited”. The “tumors at the end of the experiment” value with MP41 cells [5] (NOD-SCID mice, FIG. 4B (tumor weight)) is recorded as “smaller”. In addition, in the data set on MP41 cells [5] (whatever the concentration, FIG. 4C), the weight of mice entry is listed as “did not modify the weight of mice”. The tumor growth entry in the data set with MP41 cells [6] (33 mg/kg per day, FIG. 5) is recorded as “had a trend to decrease tumor growth”. In the data set on MP41 cells [6] (100 mg/kg dose, FIG. 5A), the “reduction of tumor growth” value came to 50%. Moreover, in the data set on MP41 cells [6] (100 mg/kg dose, FIG. 5B), the “reduction of tumor weight” value is given as 50%. For the same molecule, the mice weight result in the data set with MP41 cells [6] (33 and 100 mg/kg/day, FIG. 5C) is reported as “did not modify mice weight”.

(Values after patent publication US20240199562A1, “UREA DERIVATIVES FOR TREATING UVEAL MELANOMA” (CENTRE NATIONAL DE LA RECHERCHE SCIENTIFIQUE, priority 2021, published 2024).)
